Source: PMC8667898, “Topo II inhibition and DNA intercalation by new phthalazine-based derivatives as potent anticancer agents: design, synthesis, anti-proliferative, docking, and in vivo studies” (Journal of Enzyme Inhibition and Medicinal Chemistry, 2021)
Read-outs that look alike come from different tables or passages of the source.

Assays:
[1] = test system: HepG-2 cells (hepatocellular carcinoma); test: MTT anti-proliferative assay, HepG-2; type: cell-based, human; settings: for IC50: mean ± SD of three separate experiments, read-out: In vitro Cytotoxicity IC50 HepG-2
Method: (§1) Anti-proliferative activities of the target compounds were assessed via the standard MTT method[38–40] against three cancer cell lines, namely, hepatocellular carcinoma (HepG-2), colorectal carcinoma (HCT-116), and human breast adenocarcinoma (MCF-7).
(§2) Anti-proliferative activity of the synthesised compounds was estimated using the MTT assay protocol[8]^,[38–40] as shown in Supplementary data.
(§3) 4.2.1. In vitro anti-proliferative activity against MCF-7, HepG-2 and HCT-116 The cells were cultured in RPMI-1640 medium supplemented with 10% fetal bovine serum (FBS), penicillin (100 unit /mL) and streptomycin sulphate (100µg/mL) at 37 °C in a 5% CO2 incubator.
(§4) Then, cells were dropped in 96-well plates at a density of 3-8 × 10^3 cells/well and incubated for two days in a 5% CO2 incubator at 37 °C. Then, the cells were treated with the synthesized compounds and the cell cultures were continued incubated for 24 h. However, Different concentrations of the compound under test (0.0, 5.0, 12.5, 25.0 and 50 mg/ml) were added to the cell monolayer. Then, (3-[4,5-dimethylthiazol-2-yl]- 2,5-diphenyltetrazolium bromide) MTT solution (20 µl, 5mg/mL) was added to each well and incubated for additional 4 h. The formed purple crystals of MTT-formazan were dissolved in 100 µl DMSO each well; the absorbance of each well was measured at 570 nm using a plate reader (EXL 800, USA). All of the compounds were tested three times. The relative cell viability in percentage was calculated.
(§5) The data represented the mean of three independent experiments in triplicate and were expressed as means ± SD. […]

[2] = test system: HCT-116 cells (colorectal carcinoma); test: MTT anti-proliferative assay, HCT-116; type: cell-based, human; settings: for IC50: mean ± SD of three separate experiments, read-out: In vitro Cytotoxicity IC50 HCT-116
Method: as §1, with “(MCF-7). Doxorubicin was used in this test as a positive control.” for “(MCF-7).”
as §2, §3
as §4, with “calculated. The results for IC50 values of the active compounds are […]” for “calculated.”
as §5
(§6) of the cells could survive. […]

[3] = test system: MCF-7 cells (human breast adenocarcinoma); test: MTT anti-proliferative assay, MCF-7; type: cell-based; settings: for IC50: mean ± SD of three separate experiments, read-out: In vitro Cytotoxicity IC50 MCF-7
Method: as §1, with “(MCF-7). Doxorubicin was used in this test as a positive control.” for “(MCF-7).”
as §2, §3
as §4, with “calculated. The results for IC50 values of the active compounds are […]” for “calculated.”
as §5, §6

Calf thymus DNA = test: DNA intercalation assay (DNA/methyl green colorimetric assay); type: binding; settings: three independent experiments
Method: as §5
4.2.2. DNA intercalation assay (DNA/methyl green colorimetric assay)
Affinity of some compounds for DNA-binding was examined in vitro using DNA/methyl green assay using doxorubicin as a positive control. In this test, a mixture of methyl green (20 mg) and Calf thymus DNA (10 mg) (Sigma– Aldrich) were suspended in 0.05 M TrisHCl buffer (100 mL, pH 7.5) containing 7.5 mM MgSO4. This mixture was stirred continuously for 24 h at 37 °C. Then, ethanolic solution of the test compounds was pitted into the wells of a 96-well microtiter tray at a concentration of 10, 100 and 1000 µM. The excess solvent was removed from each well under vacuum, with subsequent addition of 200 µL of the DNA/methyl green solution. The test samples were incubated for 24 h in dark at ambient temperature. After that, absorbance of each sample was determined at 642.5–645 nm. In this test, the methyl green dye reversibly binds to DNA to form persistent colored complex of DNA/methyl green. This color still stables at neutral pH. When the DNA intercalators were added, the methyl green was displaced from DNA with addition of H2O molecule to the dye resulting in formation of the colorless carbinol leading to a decrease in spectrophotometric absorbance. ΔA value (the difference between DNA/methyl green complex and free cabinol) provides the simplest means for detecting the DNA-binding affinity and relative binding strength. IC50′s were determined by linear regression of data plotted on a semi -log scale and the data were compared with doxorubicin as standard DNA intercalator . […]

human Topo II = target: T1, human Topo II (Homo sapiens, UniProt P11388); test: Topoisomerase II inhibitory activity (TopoGEN drug screening kit); type: biochemical; settings: three independent experiments
T1 construct: purchased TopoGEN, Inc., Columbus
T1 sequence (P11388 whole entry): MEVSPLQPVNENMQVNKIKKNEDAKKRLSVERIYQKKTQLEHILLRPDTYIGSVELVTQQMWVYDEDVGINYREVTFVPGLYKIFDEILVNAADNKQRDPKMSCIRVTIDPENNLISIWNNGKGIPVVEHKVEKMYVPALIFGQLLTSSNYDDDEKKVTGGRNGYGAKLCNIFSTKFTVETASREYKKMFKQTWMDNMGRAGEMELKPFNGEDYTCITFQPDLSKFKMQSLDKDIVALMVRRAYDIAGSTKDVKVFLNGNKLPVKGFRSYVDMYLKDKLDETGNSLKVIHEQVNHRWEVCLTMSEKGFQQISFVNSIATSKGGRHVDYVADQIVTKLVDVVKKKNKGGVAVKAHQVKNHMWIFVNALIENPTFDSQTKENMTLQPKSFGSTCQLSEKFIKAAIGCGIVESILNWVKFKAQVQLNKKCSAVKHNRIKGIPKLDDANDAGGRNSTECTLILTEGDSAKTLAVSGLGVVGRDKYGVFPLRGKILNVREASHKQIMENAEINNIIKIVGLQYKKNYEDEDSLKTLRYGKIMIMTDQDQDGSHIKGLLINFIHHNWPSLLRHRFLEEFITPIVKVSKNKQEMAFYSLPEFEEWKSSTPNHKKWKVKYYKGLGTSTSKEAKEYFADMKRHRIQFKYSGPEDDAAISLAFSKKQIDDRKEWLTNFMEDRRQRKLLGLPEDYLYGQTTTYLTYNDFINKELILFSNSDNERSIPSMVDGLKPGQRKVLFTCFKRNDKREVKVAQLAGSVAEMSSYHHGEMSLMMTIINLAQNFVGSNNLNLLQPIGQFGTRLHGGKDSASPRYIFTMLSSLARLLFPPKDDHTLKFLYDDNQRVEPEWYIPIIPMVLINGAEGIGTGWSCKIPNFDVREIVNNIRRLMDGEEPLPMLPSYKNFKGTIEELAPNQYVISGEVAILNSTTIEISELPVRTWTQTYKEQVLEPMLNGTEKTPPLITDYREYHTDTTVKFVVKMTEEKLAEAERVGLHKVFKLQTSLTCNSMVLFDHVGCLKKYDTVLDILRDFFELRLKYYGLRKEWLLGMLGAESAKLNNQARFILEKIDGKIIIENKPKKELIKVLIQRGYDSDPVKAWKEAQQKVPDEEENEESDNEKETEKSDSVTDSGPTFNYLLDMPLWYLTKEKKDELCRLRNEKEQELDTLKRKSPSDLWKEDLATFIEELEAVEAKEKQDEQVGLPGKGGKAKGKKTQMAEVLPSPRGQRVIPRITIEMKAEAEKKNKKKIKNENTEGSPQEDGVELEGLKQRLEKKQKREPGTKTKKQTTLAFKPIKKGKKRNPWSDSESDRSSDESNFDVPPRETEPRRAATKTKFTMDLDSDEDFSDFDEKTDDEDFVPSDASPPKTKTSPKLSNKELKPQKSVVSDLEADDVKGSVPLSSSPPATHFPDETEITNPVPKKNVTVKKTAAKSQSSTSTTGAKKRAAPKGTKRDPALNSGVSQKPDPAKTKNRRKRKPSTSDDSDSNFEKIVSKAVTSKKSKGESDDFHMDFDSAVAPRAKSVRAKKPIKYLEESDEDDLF
Method: The activity of topoisomerase II was determined according to the reported procedure described by Patra et al.[42]. […]
4.2.3. Measurement of topoisomerase II activity
Compounds (8a, 8b, 9a, 9c, 9d, 12a, and 12b) were further evaluated to assess their Topo II inhibitory activities. In this test, Topo II drug screening kit (TopoGEN, Inc., Columbus) was utilized to determine the Topo II activity. […] A typical enzyme […]
reaction contained a mixture of human Topo II (2 µL), substrate super coiled pHot1 DNA (0.25 µg), 50 µg/mL test compound (2 µL), and assay buffer (4 µL). The reaction started upon incubation of the mixture in 37 °C for 30 min. The reaction was terminated by addition of 10% sodium dodecylsulphate (2 µL) and proteinase K (50 µg/mL) at 37 °C for 15 min. followed by incubation for 15 min at 37 °C.
Then, the DNA was run on 1% agarose gel in BioRad gel electrophoresis system for 1–2 h followed by staining with GelRedTM stain for 2 h and destained for 15 min with TAE buffer. The gel was imaged Via BioRad’s Gel DocTMEZ system. Both supercoiled and linear strands DNA were incorporated in the gel as markers for DNA-Topo II intercalators. The results of IC50 values were calculated using the GraphPad Prism version 5.0. Each reaction was performed in duplicate, and at least three independent determinations of each IC50 were made.

[4] = ratio of IC50 values vs doxorubicin

| SMILES | IC50 ([1]; Homo sapiens, HepG2, MTT) | IC50 ([2]; Homo sapiens, HCT-116, MTT) | IC50 ([3]; Homo sapiens, MCF7, MTT) | IC50 (Calf thymus DNA) | IC50 (human Topo II) | IC50 ([1]; MTT) | IC50 ([2]; MTT) | IC50 ([3]; MTT) | times more active than doxorubicin, HepG2 [1, 4] | times more active than doxorubicin, HCT-116 [2, 4] | times more active than doxorubicin, MCF-7 [3, 4] |
| --- | --- | --- | --- | --- | --- | --- | --- | --- | --- | --- | --- |
| CCCc1nnc2c3ccccc3c(NNC(=O)NC3CCCCC3)nn12 [Compound 7a, N-Cyclohexyl-2–(3-propyl-[1,2, 4]triazolo[3,4-a]phthalazin-6-yl)hydrazine-1-carboxamide] | 24.9 ± 0.8 µM | 23.8 ± 0.81 µM | 19.4 ± 0.62 µM | 37.1 ± 2 µM |  |  |  |  |  |  |  |
| CCCc1nnc2c3ccccc3c(NNC(=O)Nc3ccccc3)nn12 [Compound 7b, N-Phenyl-2–(3-propyl-[1,2, 4]triazolo[3,4-a]phthalazin-6-yl)hydrazine-1-carboxamide] | 45 ± 1.1 µM | 48.6 ± 1.6 µM | 50.7 ± 1.55 µM | 36.6 ± 1.82 µM |  |  |  |  |  |  |  |
| CCCc1nnc2c3ccccc3c(NNC(=S)NCC)nn12 [Compound 8a, N-Ethyl-2–(3-propyl-[1,2, 4]triazolo[3,4-a]phthalazin-6-yl)hydrazine-1-carbothioamide] | 28.9 ± 0.67 µM | 25 ± 0.7 µM | 16.5 ± 0.43 µM | 29.6 ± 1.41 µM | 22.3 ± 2 µM |  |  |  |  |  |  |
| CCCc1nnc2c3ccccc3c(NNC(=S)NC3CCCCC3)nn12 [Compound 8b, N-Cyclohexyl-2–(3-propyl-[1,2, 4]triazolo[3,4-a]phthalazin-6-yl)hydrazine-1-carbothioamide] | 10.9 to 14.9 µM | 10.9 to 14.9 µM | 10.9 to 14.9 µM | 34.6 ± 1.1 µM | 8.91 ± 0.77 µM | 10.9 ± 0.34 µM | 13.8 ± 0.44 µM | 12.5 ± 0.32 µM |  |  |  |
| CCCc1nnc2c3ccccc3c(NN=Cc3ccc(Cl)cc3)nn12 [Compound 9a, 6-[2–(4-Chlorobenzylidene)hydrazineyl]-3-propyl-[1,2, 4]triazolo[3,4-a]phthalazine] | 25.2 ± 0.7 µM | 36.3 ± 1.1 µM | 45.5 ± 1.22 µM | 43.8 ± 2.22 µM | 13.7 µM |  |  |  |  |  |  |
| CCCc1nnc2c3ccccc3c(NN=Cc3ccc(F)cc3)nn12 [Compound 9b, 6-[2–(4-Fluorobenzylidene)hydrazineyl]-3-propyl-[1,2, 4]triazolo[3,4-a]phthalazine] | 63.9 ± 1.02 µM | 61.7 ± 1.89 µM | 36 ± 0.98 µM | 49.9 ± 2.53 µM |  |  |  |  |  |  |  |
| CCCc1nnc2c3ccccc3c(NN=Cc3ccc(O)cc3)nn12 [Compound 9c, 4-[(2–(3-Propyl-[1,2, 4]triazolo[3,4-a]phthalazin-6-yl)hydrazineylidene)methyl]-phenol] | 56.3 ± 1.73 µM | 78.5 ± 2.04 µM | 57.8 ± 1.56 µM |  | 21.4 ± 1.9 µM |  |  |  |  |  |  |
| CCCc1nnc2c3ccccc3c3nnc(SCC(=O)Nc4ccc(C(=O)O)cc4)n3n12 [Compound 14a, 4-[2-((6-Propylbis([1,2, 4]triazolo)[3,4-a:4',3'-c]phthalazin-3-yl)thio)acetamido]benzoic acid] | 5.65 ± 0.25 µM | 4.35 ± 0.19 µM | 4.36 ± 0.2 µM | 28.7 ± 1.71 µM | 7.64 ± 0.66 µM |  |  |  | about 1.46 times | ~2.28 times | ~1.75 times |
| CCCc1nnc2c3ccccc3c3nnc(SCC(=O)Nc4ccc([N+](=O)[O-])cc4)n3n12 [Compound 14b, N-(4-Nitrophenyl)-2-[(6-propylbis([1,2, 4]triazolo)[3,4-a:4',3'-c]phthalazin-3-yl)thio]acetamide] | 10.9 to 14.9 µM | 10.9 to 14.9 µM | 10.9 to 14.9 µM | 34.4 ± 2.8 µM | 13.7 ± 1.02 µM | 13.4 ± 0.4 µM | 12.6 ± 0.45 µM | 14.9 ± 0.55 µM |  |  |  |
| CCCc1nnc2c3ccccc3c3nnc(SCC(=O)Nc4ccc(S(N)(=O)=O)cc4)n3n12 [Compound 14c, 2-[(6-Propylbis([1,2, 4]triazolo)[3,4-a:4',3'-c]phthalazin-3-yl)thio]-N-(4-sulfamoyl-phenyl)acetamide] | 24.8 ± 0.88 µM | 30.99 ± 0.11 µM | 20.6 ± 0.88 µM | 46.3 ± 2.3 µM |  |  |  |  |  |  |  |
| CCCc1nnc2c3ccccc3c3nnc(SCC(N)=O)n3n12 [Compound 15, 2-[(6-Propylbis([1,2, 4]triazolo)[3,4-a:4',3'-c]phthalazin-3-yl)thio]acetamide] | 38.6 ± 1 µM | 53.5 ± 1.55 µM | 26.2 ± 0.77 µM | 71.2 ± 3.11 µM |  |  |  |  |  |  |  |
